# Values joined by “and” are separate entries in the source; they are usually repeats but may differ in a detail not shown here. Equal entries are not always repeated. “Also recorded” adds a separate entry of the source.
# Experiments:
# [1] = system: stage 1 neural stem cells; test: HD-DoE 12-factor experiment for stage 2 recipe (second model, FIG. 8-10, 13); format: cell-based, human; conditions: for impact on GBX2 / impact on expression of LMX1A / impact on expression of FOXA2: dynamic profile, 12 effectors; for level of FOXA2 in absence of the factor / level of LMX1A in absence of the factor: stage 2 recipe, second experiment model; for level of LMX1A in absence of the factor: 4000 with all factors
# Description: To test additional factors like FGF8 that is routinely used in midbrain differentiation protocols, we ran another 12-factor experiment consisting of LDN193189, BMP7, A 83-01, Activin A, Takinib, PD0325901, MK2206, FGF8b, AZD3147, MHY1485, GSI-XX and Yhhu 3792. Similar to the previous experiment, hiPSCs were treated with stage 1 media for 3 days and then treated with 96 conditions of combinations of the factors for an additional 3 days. When this model was optimized for maximum expression of FOXA2, BMP7 with factor contribution of 13.7 and MK2206 with 14.2 had the most impact on its expression followed by AZD 3147 with factor contribution of 10.9.
# (§1) To assess the impact of elimination of each validated factor, we used dynamic profile analysis and compared the expression level of genes of interest in absence of each finalized factor while others are present.
# (§2) In the stage 2 recipe, each of the six finalized factors were removed while the other five factors were present and the expression levels of FOXA2, LMX1A and GBX2 were assessed, compared to the levels in the presence of all factors. According to the first experiment model, the absence of TTNPB lead to a rise of GBX2 expression, while the value of FOXA2 and LMX1A reduced drastically from 10,000 to 0 and 30,000 to 15,000, respectively. The absence of A 83-01 reduced the expression of FOXA2 from 10,000 to 7000, however, as expected, the value of LMX1A increased from 30,000 to 40,000. […] According to the second experiment model, the absence of BMP7 and MK2206 both reduced the level of FOXA2 while increasing the value of LMX1A, with BMP7 as the main effector that led to 0 expression of FOXA2.
# stage 3 immature neurons = test: HD-DoE 8-factor experiment for stage 4 recipe (FIG. 27, 28, 31); format: cell-based, human; conditions: for impact on expression of NR4A2: 8-factor model / dynamic profile; for expression level of PITX3 in absence of the factor / expression level of NR4A2 in absence of the factor: stage 4 recipe, other factors present; for expression level of PITX3 in absence of the factor: 40 with all factors; for expression level of NR4A2 in absence of the factor: 400 with all factors
# Description: To further differentiate the cells to a mature neuronal identity, additional HD-DoE experiments were performed on the cells that were cultured in stage 1, stage 2 and stage 3 differentiation media. After 4 days, gene expression of cells in different combinatorial conditions were investigated. At this time, we focused on maximal expression of more mature dopaminergic genes such as NR4A2, PITX3 and TH (Tiklová et al. (2020) Nat Commun. 11:2434; Fiorenzano et al. (2021) Nat Commun., 12:7302). In one model, cells were treated with a combinatorial matrix with eight inputs including CHIR99021, BDNF, GDNF, Rosiglitazone, GW7647, DBZ and heparin.
# (§3) To assess the impact of elimination of each validated factor identified in Example 5 for the stage 3 and stage 4 recipes, we used dynamic profile analysis and compared the expression level of genes of interest in absence of each finalized factor while others are present.
# In the stage 4 recipe, each of six finalized factors were excluded while other factors were present and the expression levels of NR4A2 and PITX3 were assessed compared to the presence of all factors.
# [2] = system: human pluripotent stem cells; test: HD-DoE 13-factor experiment for stage 1 recipe, gene expression modeled after 3-day treatment; dynamic profile and factor criticality analysis; format: cell-based
# Text: This example utilizes a method of High-Dimensional Design of Experiments (HD-DoE), as previously described in Bukys et al. (2020) Iscience 23:101346. The method employs computerized design geometries to simultaneously test multiple process inputs and offers mathematical modeling of a deep effector/response space. The method allows for finding combinatorial signaling inputs that control a complex process, such as during cell differentiation. It allows testing of multiple plausible critical process parameters, as such parameters impact output responses, such as gene expression. Because gene expression provides hallmark features of the phenotype of, for example, a human cell, the method can be applied to identify, and understand, which signaling pathways control cell fate. In the current example, the HD-DOE method was applied with the intent to find conditions for induction of midbrain neural progenitor-expressed genes, directly from the pluripotent stem cell state.
# To develop the recipe for each stage, the impact of agonists and antagonists of multiple signaling pathways (referred to herein as “effectors”) on the expression of two sets of 53 pre-selected genes after a 3-day treatment was tested and modeled. These effectors are small molecules or proteins that are commonly used during stepwise differentiation of stem cells to specific fates. The choice of the effectors to test was based on current literature on neural induction in the midbrain region of the developing brain and differentiation of stem cells to neural progenitors.
# To test the effectors, experiments with at least 8 factors were designed that can assess the response of cells to 48 or more different combinations of effectors in a range of concentrations. To analyze the models, we focused on expression of genes expressed in the midbrain region, including OTX2, DMBX1, FOXA2, LMX1A, and on the absence of GBX2, which is a hindbrain marker. The impact of each effector on gene expression level is defined by a parameter called factor contribution that is calculated for each effector during the modeling.
# To identify the recipe of stage 1 of differentiation, cells were treated with various effectors for 3 days and the gene expression of cells was modeled. […] This model consisted of 13 factors including LDN193189, PD173074, BLU9931, Purmorphamine, SC79, MK2206, ZM336372, PD0325901, CHIR99021, XAV939, UCLA-gp130, Tofacitinib and GO 6983.
# as §1
# In the stage 1 recipe, each of the five finalized factors were removed while the other four factors were present and the expression levels of OTX2, DMBX1, FOXA2 and LMX1A was assessed compared to the levels in the presence of all five factors (FIG. 11A-B). […] Expression level of DMBX1 increased in absence of LDN193189, however values of OTX2, FOXA2 and LMX1A decreased.
# [3] = system: stage 1 neural stem cells; test: HD-DoE 12-factor experiment for stage 2 recipe (first model, FIG. 5-7, 12); format: cell-based, human; conditions: dynamic profile / model, 12 effectors
# Text: To further guide the differentiation of midbrain-committed neural stem cells to neural progenitor cells at stage 2, we performed an additional HD-DoE experiment. We thereby obtained additional gene regulatory models that were used for preparation of differentiation protocol. The basis of this was a 12-factor HD-DoE experiment with focus on initiation of differentiation of cells toward midbrain neural progenitor cells for an additional 3 days after termination of stage 1 treatment. Here, we focused on expression of LMX1A and FOXA2 in neural progenitor cells with low to zero expression of GBX2. LMX1A had significant high expression level in the model with value of 47888. Therefore, we used optimization setting for this gene to identify the positive factors. The factors in this experiment included SC79, MK2206, ZM336372, PD0325901, CHIR99021, A 83-01, TTNPB, AGN193109, GW3965, SR9243, Purmorphamine and GSI-XX.
# as §1, §2
# [4] = system: stage 2 neural progenitors; test: HD-DoE 12-factor model for stage 3 recipe (FIG. 19-23, 29); format: cell-based, human
# Text: To develop the neuronal differentiation recipes, the impact of various agonist and antagonists (effectors) on maturation of MB neural progenitors was investigated using the HD-DoE method described in Example 1. These effectors were chosen based on available literature on developmental biology, differentiation of stem cells as well as mouse and human single cell RNA-seq data from midbrain neurons at the time.
# To engineer the recipe of stage 3 of differentiation, cells were first cultured in the stage 1 and stage 2 media as described herein, then they were treated with combinations of 8 or 12 factors for 3 days and the gene expression of cells in each condition was modeled. To guide the cells towards a subtype of midbrain dopaminergic neurons that reside in Substantia Nigra pars compacta (SNc) region of the brain, neural progenitors need to be SOX6^+ (Pereira et al. (2021) Cell Rep. 37:109975 Oosterveen et al. (2021) Stem Cell Reports 16:2718-2735 Poulin et al. (2020) Trends Neurosci. 43:155-169). CORIN, NGN2 and MSX1 are other markers involved in neurogenesis of dopaminergic neurons originating from floorplate region of developing midbrain (Wang et al. (2020) Cells 9:1489; Samata et al. (2016) Nat Commun. 7:13097; Ono et al. (2007) Development 134:3213-3225; Prakash et al. (2006) J. Physiol. 575:403410).
# Therefore, we focused on maximizing expression of SOX6, CORIN, NGN2 and MSX1 in modeling experiments. One of the 12-factor models, the results of which are shown in FIG. 19, including LDN193189, AGN193109, BMP7, TTNPB, PD0325901, A8301, MHY1485, CHIR99021, XAV939, SANT-1, Purmorphamine and MK2206, provided a combination set that could maximize expression level of CORIN to more than 2000.
# as §3
# In the stage 3 recipe, each of the finalized factors were removed in their respective models while other factors were present and the expression level of genes of interest was assessed compared to presence of all factors. When AGN193109 was excluded, level of all CORIN, KCNJ6, MSX1 and SOX6 decreased from 900 to 450, 50 to 35, 140 to 110 and 105 to 60, respectively. […] When PD0325901 was removed, expression levels of CORIN and KCNJ6 increased to 1200 and 70 while levels of MSX1 and SOX6 decreased to 105 and 20. In the absence of CHIR99021, the expression level of CORIN was again increased to 1200 while the level of KCNJ6 and MSX1 dropped to 50 and 115. […] Therefore, it was decided to include this compound in the final recipe. […] Therefore, CHIR99021 was also included in the final recipe.
# [5] = model optimized for maximum expression of FOXA2, positive impact
molecule,measurement,setting,value
COc1cccc(Oc2cccc3nc(Nc4ccc(C(C)C)cc4)nc(N)c23)c1 [Yhhu 3792],impact on GBX2,[1],positive effect
same,impact on expression of LMX1A,[1],considerable negative effect
same,factor contribution,"[1]; model optimized for LMX1A, negative impact",11.7
CC(C)(Sc1ccc(CCN(CCCCC2CCCCC2)C(=O)NC2CCCCC2)cc1)C(=O)O [GW7647],impact on expression of NR4A2,stage 3 immature neurons,positive regulatory impact
same,expression level of PITX3 in absence of the factor,stage 3 immature neurons,lower expression levels
same,expression level of NR4A2 in absence of the factor,stage 3 immature neurons,lower expression levels
NCCc1ccc(O)c(O)c1 [Dopamine],impact on expression of NR4A2,stage 3 immature neurons,positive regulatory impact
same,expression level of PITX3 in absence of the factor,stage 3 immature neurons,20
same,expression level of NR4A2 in absence of the factor,stage 3 immature neurons,~0
CN(CCOc1ccc(CC2SC(=O)NC2=O)cc1)c1ccccn1 (stereo not drawn) [Rosiglitazone],factor contribution,"stage 3 immature neurons; model maximized for NR4A2, negative impact",13.6
NC1(c2ccc(-c3nc4ccn5c(=O)[nH]nc5c4cc3-c3ccccc3)cc2)CCC1 [MK2206],impact on expression of OTX2,"[2]; dynamic profile, 13 effectors",positive impact
same,factor contribution,"[2]; model optimized for maximum expression of OTX2, positive impact, 3-day treatment",22.3
same,expression level of LMX1A in absence of the factor,"[2]; stage 1 recipe, other four factors present, 300 with all five factors",stayed the same
same,expression level of FOXA2 in absence of the factor,"[2]; stage 1 recipe, other four factors present, 600 with all five factors",stayed the same
same,expression level of DMBX1 in absence of the factor,"[2]; stage 1 recipe, other four factors present, 3000 with all five factors",1500
same,expression level of OTX2 in absence of the factor,"[2]; stage 1 recipe, other four factors present, 12000 with all five factors",9500
same,impact on expression of FOXA2,[3],positive impact
same,impact on GBX2,[1],desirable impact
same,impact on expression of FOXA2,[1],desirable impact; also recorded: positive impact
same,impact on expression of LMX1A,[1],decreases
same,factor contribution,[1]; [5],14.2
same,factor contribution,"[1]; model optimized for maximum expression of LMX1A, positive impact",12
same,level of FOXA2 in absence of the factor,[1],reduced
same,level of LMX1A in absence of the factor,[1],increasing
heparin,impact on expression of NR4A2,stage 3 immature neurons,positive regulatory impact
same,expression level of PITX3 in absence of the factor,stage 3 immature neurons,30
same,expression level of NR4A2 in absence of the factor,stage 3 immature neurons,did not significantly change
"BMP7: BMP agonist (protein, UniProt P18075 293-431, looked up) Bone morphogenetic protein 7: STGSKQRSQNRSKTPKNQEALRMANVAENSSSDQRQACKKHELYVSFRDLGWQDWIIAPEGYAAYYCEGECAFPLNSYMNATNHAIVQTLVHFINPETVPKPCCAPTQLNAISVLYFDDSSNVILKKYRNMVVRACGCH",factor contribution,"[4]; model maximizing expression of CORIN, positive regulatory impact",high positive factor contributions
same,factor contribution,"[4]; model optimized for maximum expression of KCNJ6, positive regulators",low factor contributions
same,factor contribution,"[4]; model optimized for maximum expression of MSX1, positive impact",11.1 and 11.06
same,expression level of KCNJ6 in absence of the factor,"[4]; stage 3 recipe, other factors present, 50 with all factors",did not have a significant change
same,expression level of SOX6 in absence of the factor,"[4]; stage 3 recipe, other factors present, 105 with all factors",did not have a significant change
same,expression level of MSX1 in absence of the factor,"[4]; stage 3 recipe, other factors present, 140 with all factors",100
same,expression level of CORIN in absence of the factor,"[4]; stage 3 recipe, other factors present, 900 with all factors",500
same,impact on expression of FOXA2,[1],significant positive impact
same,impact on expression of LMX1A,[1],did not reduce
same,factor contribution,[1]; [5],13.7
same,level of FOXA2 in absence of the factor,[1],0
same,level of LMX1A in absence of the factor,[1],increasing
